Reference: patent US20230414514A1, “FORMULATION TO DETER ABUSE OF DRUGS BY SMOKING” (Purdue Research Foundation, priority 2022, published 2023)

Experiment: Thermogravimetric analysis (TGA), thermal stability / decomposition
Assay type: physicochemical
Conditions: as stated in the description, conditions not given
Protocol: Samples of 8.0-18.2 mg were placed in platinum TGA sample pans (CS Ceramic) and heated from room temperature to 700° C. at 20° C./min in a furnace under either inert (nitrogen) or oxidizing (air) atmosphere. The experiments were performed in triplicates (n=3) or quintuplicates (n=5). The data were exported and the TGA curves were analysed using TA Universal Analysis Software (Universal Analysis 2000 Version 4.5A, TA Instruments-Waters LLC, New Castle, DE) to determine onset degradation temperatures (Ton,degradation) and weight percent losses of the materials used in this study over the temperature intervals of interest. The values were averaged and reported as mean±standard deviation.
FIG. 3A and FIG. 3B show the TGA profiles for PLA and PCL respectively. […] The mean Ton,degradation of PLA was 278.8±3.8° C., with the average weight percent loss of 98.6±0.3% (n=3) during the decomposition step. The mean Ton,degradation of PCL was 353.1±1.7° C., and the weight percent loss averaged 97.9±1.1% (n=3).
PLA-PCL MS with a 1:9 polymer ratio lost 12.3±0.8% weight (n=3) during the first decomposition step, and 84.7±0.6% weight (n=3) during the second step. The mean weight percent loss for the PLA-PCL MS with a 5:5 ratio of PLA to PCL was 56.5±0.9% (n=3) and 38.4±1.1% (n=3) during the first and second thermal degradation steps. […]

Compound: COC1=CC=C2[C@H]3Cc4ccc(OC)c5c4[C@@]2(CCN3C)[C@H]1O5 [THB, Thebaine]
- thermal decomposition temperature: about 183 °C
